In data set [1] the test system is utriculi in the Rhino mouse. Put plainly: Reduction of the number of utriculi in the Rhino mouse model. The format is in vivo, Rhino mice. The conditions noted are these: for inhibition in vivo at 0.2 % / inhibition in vivo at 0.1 %: read-out: Decrease in % (number of utriculi / cysts).
The subject of another data set is comedos. The data set is described as follows: Comedolytic activity on tar-induced comedos of rabbit ears. It is filed as in vivo, albino rabbits. The conditions noted are these: Oryctolagus cuniculus, 336 h, topical, read-out: Comedolytic activity in % (decrease in number of comedos vs control ear). The procedure:
The development of comedos was induced by one topical application of 0.5 ml per day, onto both ears of albino rabbits, of 5% of tar in Polyan® (ester of lanolin alcohol and linolenic acid, produced by Amerchol Corp., U.S.A.), the application being carried out on 5 successive days per week over a period of two weeks. Thereafter, the test substances in ethanol/propylene glycol (70:30, v/v, 0.5 ml) were applied topically onto the inner skin area of one ear of each rabbit once per day on 5 successive days per week over a period of two weeks. The second ear of each animal served as an untreated control.
After further treatment for 72 hours with the test substance, the rabbits were sacrificed. A skin sample of about 6 cm^2 was taken from each auricle just outside the oratory passage, and this sample was divided into sections of about 1 cm^2. These pieces of skin were immersed for 2 minutes in warm water at 60° C. The epidermis was carefully peeled off using the flat end of a spatula and a small forceps, and was placed, dermal side up, on the slide. After drying in air overnight, the test strips were assessed under a stereomicroscope. […] The comedos were recognizable as discrete, cylindrical to round keratose particles which were of similar appearance and whose size and number were proportional to the activity of the test substance. The comedolytic effect was determined as the decrease in the number of comedos, in %, compared with the control ear (cf. Table 2).

For a further data set, the system named is tracheal epithelium. Put plainly: Elimination of keratinization in tracheal cultures (antitumor action). As to conditions: Mesocricetus auratus, 240 h. The format is cell-based, hamster. An excerpt:
The test model is used to determine the intrinsic property of the novel compounds of increasing the differentiation of epithelial cells. The great significance of this screening method in predicting the potential use of a new retinoid for the prevention of tumors in epithelial tissue is generally recognized. Moreover, it is known that every in vitro test system has disadvantages in respect of the prediction of in vivo activity. Apart from these basic restrictions, tracheal cell cultures are one of the most useful methods of determining the biological activity of novel retinoids.
The ability of the test substances to eliminate keratinization in a defined in vitro system was determined. Tracheae of hamsters at a very early stage of vitamin A deficiency were used for culture. […] Their average weight was from 47 to 52 g. The tracheal epithelium was in general slightly columnar or pavement-like and had only isolated areas of squamous metaplasia. Each trachea was opened along the membrane-like dorsal wall, from the larynx to the carina, and cultured in a serum-free medium (CMRL-1066 supplemented by 1.0 μg/ml of crystalline bovine insulin, 0.1 μg/ml of hydrocortisone hemisuccinate, 2mM of glutamine, 100 units/ml of penicillin and 100 μg/ml of streptomycin). The cultures were aerated with a mixture of 50% of oxygen, 45% of nitrogen and 5% of carbon dioxide, and the culture dishes were shaken gently to bring the tracheae into contact with the gas and the culture medium. All tracheae were initially kept for 3 days in the culture medium without the addition of retinoid. After this period, some tracheae were removed. […] The remaining tracheae were divided into groups, which were then treated with the following additives:
(a) The test substance dissolved in spectroscopically pure dimethylsulfoxide (the final concentration of dimethylsulfoxide in the culture medium was never greater than 0.1%).
(b) An equivalent amount of dimethylsulfoxide without a further additive.
The nutrient medium was changed three times per week. After culture for 10 days, the remaining tracheae were worked up by being fixed in 10% strength buffered formaldehyde solution and embedded in paraffin. […] Dose-effect curves of the novel compounds were recorded. Table 1 below gives the extrapolated molar doses which suppress keratinization in half the cultures (ED 50%).

The test system of data set [2] is white male New Zealand rabbits. The conditions noted are these: rabbit, in vivo. The procedure:
5. The toleration of the test substances after topical administration was determined in experiments with 6 white male New Zealand rabbits in each case. In the case of each test animal, an area of about 6 cm^2 on the back was shaved. The test substances were dissolved in ethanol/propylene glycol (70:30, v/v), and 0.2 ml of this solution was applied with an automatic micropipette on 9 successive days by carefully rubbing the solution into a particular point twice daily at 6-hour intervals.
Before each application in the morning, all test areas were assessed subjectively in respect of erythemas and scaling, a numerical scale from 0 to 3 being employed (0=no reaction, 1=mild, 2=moderate and 3=severe). The average erythema formation and scaling gives the relative irritant level of the test substances in comparison with vitamin A acid.

Setting [3] is: concentration 0.2%, Rhino mouse.
Where [4] appears, read: concentration 0.1%, Rhino mouse.
Where [5] appears, read: concentration 0.1%, rabbit ear, two weeks.
Setting [6] is: hamster tracheal culture, 10 days, serum-free, extrapolated from dose-effect curves, read-out: ED50 (molar dose which suppresses keratinization in half the cultures) (converted).

Here are results for 20 compounds from patent US4578498A, “Phenylethylene derivatives and their use as drugs” (BASF Aktiengesellschaft, priority 1982, dated 1986).

Read-outs that look alike come from different tables or passages of the source.

For `C/C(=C\c1ccc(C(=O)O)cc1)c1cc2c(cc1CC(C)C)C(C)(C)C(C)C2(C)C` (centres unmarked) [Example 18, E4-[2-methyl-2-(1,1,2,3,3-pentamethyl-5-(2-methylpropyl)-indan-6-yl)-vinyl]-benzoic acid], the inhibition in vivo at 0.2 % in data set [1] (setting [3]) turned out to be 42%.

Consider `C/C(=C/c1ccc(C(=O)O)cc1)c1cc2c(cc1CC(C)C)C(C)(C)CCC2(C)C` [Example 17, Z4-[2-methyl-2-(1,1,4,4-tetramethyl-6-(2-methylpropyl)-1,2,3,4-tetrahydronaphth-7-yl)-vinyl]-benzoic acid], for which the inhibition in vivo at 0.2 % turned out to be 62% in data set [1] (setting [3]) and 56% with comedos (concentration 0.2%, rabbit ear, two weeks).

`CC1=C(/C=C/C(C)=C/C=C/C(C)=C/C(=O)O)C(C)(C)CCC1` [Vitamin A acid, reference compound]: in the data set on tracheal epithelium (read-out: ED50 (molar dose which suppresses keratinization in half the cultures)), the IC50 is 10 pM. Moreover, the inhibition in vivo at 0.1 % in data set [1] (Mus musculus) came to 60%. Also, in the data set with comedos, the inhibition in vivo at 0.1 % is 67%. In addition, in data set [2], the Erythema was 3.0 and the Scaling turned out to be 3.0.

In the case of `CCCCCCCCc1cc2c(cc1/C(C)=C/c1ccc(C(=O)O)cc1)C(C)(C)C(C)C2(C)C` (centres unmarked) [Example 24, E4-[2-methyl-2-(1,1,2,3,3-pentamethyl-5-n-octyl-indan-6-yl)-vinyl]-benzoic acid], the “Decrease in % (number of utriculi / cysts)” value in data set [1] (setting [3]) amounted to 42%.

Regarding `CCOC(=O)c1ccc(/C=C(\C)c2cc3c(cc2C(C)C)C(C)(C)CCC3(C)C)cc1` [Example 6, Ethyl E4-[2-methyl-2-(1,1,4,4-tetramethyl-6-isopropyl-1,2,3,4-tetrahydronaphth-7-yl)-vinyl]-benzoate], the results for the inhibition in vivo at 0.1 % (in data set [1] (setting [4]); in the data set with comedos (setting [5])) were 59% and 68%, respectively.

Take `C/C(=C\c1ccc(C(=O)O)cc1)c1cc2c(cc1CC(C)C)C(C)(C)CCC2(C)C` [Example 8, E4-[2-methyl-2-(1,1,4,4-tetra-methyl-6-(2-methylpropyl)-1,2,3,4-tetrahydronaphth-7-yl)-vinyl]-benzoic acid]: in data set [1] (setting [4]), the inhibition in vivo at 0.1 % is 52%. In the data set with comedos (setting [5]), the inhibition in vivo at 0.1 % was 62%. In data set [2], this compound came in with an Erythema of 1.4 and a Scaling of 1.0.

For the compound `CCOC(=O)c1ccc(/C=C(\C)c2cc3c(cc2CC(C)C)C(C)(C)CCC3(C)C)cc1` [Example 19, ethyl E4-[2-methyl-2-(1,1,4,4-tetramethyl-6-(2-methylpropyl)-1,2,3,4-tetrahydronaphth-7-yl)-vinyl]-benzoate], in data set [1] (setting [4]), the inhibition in vivo at 0.1 % was 12%.

With `C/C(=C\c1ccc(C(=O)Nc2ccc(O)cc2)cc1)c1ccc2c(c1)C(C)(C)C(C)C2(C)C` (centres unmarked) [Example 32, E-4-[2-methyl-2-(1,1,2,3,3-pentamethylindan-6-yl)-vinyl]-benzoic acid 4-ydroxyanilide], the IC50 with tracheal epithelium (setting [6]) was 1 pM.

As to `C/C(=C\c1ccc(C(=O)O)cc1)c1cc2c(cc1CCC(C)C)C(C)(C)C(C)C2(C)C` (centres unmarked) [Example 25, E4-[2-methyl-2-(1,1,2,3,3-pentamethyl-5-(3-methylbutyl)-indan-6-yl)-vinyl]-benzoic acid], in data set [1] (setting [3]), the inhibition in vivo at 0.2 % is 60%.

With `COC(=O)c1ccc(/C=C(\C)c2cc3c(cc2CC(C)C)C(C)(C)CCC3(C)C)cc1` [Example 20, methyl E4-[2-methyl-2-(1,4,4-tetramethyl-6-(2-methylpropyl)-1,2,3,4-tetrahydronaphth-7-yl)-vinyl]-benzoate], in data set [1] (setting [4]), the inhibition in vivo at 0.1 % stood at 6%.

For `C/C(=C\c1ccc(C(=O)O)cc1)c1cc2c(cc1C(C)C)C(C)(C)CCC2(C)C` [Example 7, E4-[2-methyl-2-(1,1,4,4-tetramethyl-6-isopropyl-1,2,3,4-tetrahydronaphth-7-yl)-vinyl]benzoic acid], in the data set with tracheal epithelium (setting [6]), the IC50 is 10 pM. The inhibition in vivo at 0.1 % in data set [1] (setting [4]) amounted to 62%. In addition, the inhibition in vivo at 0.1 % with comedos (setting [5]) is 59%. In addition, in data set [2], the Erythema was determined as 3.0 and the Scaling came out at 3.0.

`CCCCCCCCc1cc2c(cc1/C(C)=C/c1ccc(C(=O)O)cc1)C(C)(C)CCC2(C)C` [Example 15, E4-[2-methyl-2-(1,1,4,4-tetramethyl-6-n-octyl-1,2,3,4-tetrahydronaphth-7-yl)-vinyl]-benzoic acid]: the inhibition in vivo at 0.1 % (in data set [1] (setting [4]); with comedos (setting [5])) was 59% throughout.

In the case of `C/C(=C/c1ccc(C(=O)O)cc1)c1cc2c(cc1C)C(C)(C)CCC2(C)C` [Example 10, Z4-[2-methyl-2-(1,1,4,4,6-pentamethyl-1,2,3,4-tetrahydronaphth-7-yl)-vinyl]-benzoic acid], the inhibition in vivo at 0.1 % was 49% in data set [1] (setting [4]) and 31% in the data set on comedos (setting [5]).

`CCOC(=O)c1ccc(/C=C(\C)c2cc3c(cc2C)C(C)(C)CCC3(C)C)cc1` [Example 1, Ethyl E-4-[2-methyl-2-(1,1,4,4,6-pentamethyl-1,2,3,4-tetrahydronaphth-7-yl)-vinyl]-benzoate]: the inhibition in vivo at 0.1 % in data set [1] (setting [4]) was 65%; with comedos (setting [5]) it was 75%.

With `C/C(=C\c1ccc(C(=O)Nc2nnn[nH]2)cc1)c1ccc2c(c1)C(C)(C)C(C)C2(C)C` (centres unmarked) [Example 40, E-4-[2-methyl-2-(1,1,2,3,3,- pentamethylindan-6-yl)-vinyl]-N(tetrazol-5-yl)-benzamide], in the data set with tracheal epithelium (setting [6]), the IC50 was 1 pM.

In the case of `CCc1cc2c(cc1/C(C)=C/c1ccc(C(=O)O)cc1)C(C)(C)CCC2(C)C` [Example 5, E4-[2-methyl-2-(1,1,4,4-tetramethyl-6-ethyl-1,2,3,4-tetrahydronaphth-7-yl)-vinyl]-benzoic acid], in data set [1] (setting [4]), the inhibition in vivo at 0.1 % turned out to be 69%. Further, the inhibition in vivo at 0.1 % with comedos (setting [5]) came to 54%. Also, in data set [2], the Erythema turned out to be 2.0 and the Scaling is 1.7.

With `CCCCc1cc2c(cc1/C(C)=C/c1ccc(C(=O)O)cc1)C(C)(C)CCC2(C)C` [Example 14, E4-[2-methyl-2-(1,1,4,4-tetramethyl-6-n-butyl-1,2,3,4-tetrahydronaphth-7-yl)-vinyl]-benzoic acid], the inhibition in vivo at 0.1 % in data set [1] (setting [4]) was determined as 64%; with comedos (setting [5]) it was 79%.

`CCCc1cc2c(cc1/C(C)=C/c1ccc(C(=O)O)cc1)C(C)(C)CCC2(C)C` [Example 11, E4-[2-methyl-2-(1,1,4,4-tetramethyl-6-propyl-1,2,3,4-tetrahydronaphth-7-yl)-vinyl]-benzoic acid]: the inhibition in vivo at 0.1 % in data set [1] (setting [4]) worked out at 59%; with comedos (setting [5]) it was 40%.

For `C/C(=C\c1ccc(C(=O)Nc2ccc(O)cc2)cc1)c1ccc2c(c1)C(C)(C)CCC2(C)C` [Example 31, E-4-[2-methyl-2-(1,1,4,4-tetramethyl-1,2,3,4-tetrahydronaphth-7-yl)-vinyl]-benzoic acid 4-hydroxyanilide], the IC50 with tracheal epithelium (setting [6]) is 3 pM.

For the compound `C/C(=C\c1ccc(C(=O)O)cc1)c1cc2c(cc1CCC(C)C)C(C)(C)CCC2(C)C` [Example 23, E4-[2-methyl-2-(1,1,4,4-tetra-methyl-6-(3-methylbutyl)-1,2,3,4-tetrahydronaphth-7-yl)-vinyl]-benzoic acid], the inhibition in vivo at 0.2 % in data set [1] (setting [3]) was found to be 62%.
